Patent US20250255876A1, “COMPOSITIONS AND METHODS FOR CANCER TREATMENT” (ARIEL SCIENTIFIC INNOVATIONS LTD., priority 2021, published 2025)

What was measured:
Format in all cases: cell-based
[1] = tested on: U2OS cells; assay: Colony survival assay, U2OS cells; conditions: varying cisplatin, 48 hours
Experimental: (§1) H1975 cells were plated in 24-well plates at 50,000 cells/well (for 50 µM inhibitor treatment) or 20,000 cells/well (for […] inhibitor treatment). U2OS and A549 cells were plated in 24-well plates at 5000 cells/well. The next day, cells were treated with varying concentrations of cisplatin, either with or without added inhibitor compound. After 48 hours of cisplatin+compound treatment, the cells were washed 3 times with PBS×1 and fresh media applied. After 4 days of recovery, the cells were stained with methylene blue and imaged using a Nikon SMZ25 stereomicroscope. The images were analyzed using the ImageJ (National Institutes of Health) area measurement tool to quantify total colony size in each well.

[2] = tested on: A549 cells; assay: Colony survival assay, A549 cells; conditions: for survival rate, combined treatment: A549, 5 μM cisplatin + 50 μM compound; for toxicity / cell viability, compound alone: A549, 50 μM compound alone; for sensitization effect to cisplatin: A549, cisplatin + 50 μM compound; for cell survival with cisplatin plus inhibitor: A549, varying cisplatin, 48 hours
Experimental: as §1
Cells were plated in 24-well plates at 50,000 cells/well (H1975 line) or 10,000 cells/well (A549 line). The next day, cells were treated with varying concentrations of cisplatin ([…]), with or without 50 μM compound. For the untreated control wells containing only cisplatin, DMSO was applied in place of the compound. After 48 hours of cisplatin+compound treatment, the cells were washed 3 times with PBS and fresh media was applied. After 4 days of recovery, the cells were stained with methylene blue and imaged using a Nikon SMZ25 stereomicroscope. The images were analyzed using the ImageJ (National Institutes of Health) area measurement tool to quantify total colony size in each well.
In order to assess the ability of the selected compounds to sensitize cells during cisplatin treatment, the inventors established a colony survival assay comparing the viability of cells treated with cisplatin alone or with combined treatment of cisplatin and 50 μM compound. For the compound screen, we used two lung cancer cell lines: human non-small lung carcinoma H1975 cells, and epithelial lung adenocarcinoma A549 cells. Out of ten compounds tested, compounds c #2 and c #3 were identified with the most significant sensitization effect and were chosen for future characterization. […] Survival rate was reduced from 90% in 5 μM cisplatin treatment to 50% survival in the combined treatment (FIGS. 11A-B). H1975 cells presented similar behavior following doxorubicin treatment (FIG. 11C). IC50 was calculated using linear regression, presenting a clear reduction of cisplatin's IC50 in all treatments.

[3] = target: MAD2L2-Rev1 complex (Homo sapiens, UniProt Q9UI95); assay: GFP-Trap co-immunoprecipitation of YFP-Rev1 and myc-MAD2L2 in HEK293 cells; design: expressed in transfected cells; host or cells: HEK293; conditions: 50 μM; for reduction of MAD2L2-Rev1 binding (complex formation): 24 h
MAD2L2-Rev1 complex, sequence (Q9UI95 whole entry, one chain of several): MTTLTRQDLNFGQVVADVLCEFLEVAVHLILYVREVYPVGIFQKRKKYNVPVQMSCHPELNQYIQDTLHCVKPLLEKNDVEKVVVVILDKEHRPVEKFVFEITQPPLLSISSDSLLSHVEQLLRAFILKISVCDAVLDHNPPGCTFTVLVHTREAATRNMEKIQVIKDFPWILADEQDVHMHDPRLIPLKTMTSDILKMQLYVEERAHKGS
Experimental: HEK293 cells were plated in 10-cm plates at 40-50% confluency. The next day, the cells were co-transfected with YFP-Rev1 and myc-MAD2L2 plasmids. After 24 hours, 50 µM inhibitor compounds (or DMSO negative control) were applied to the cells and growth continued for another 24 hours. The cells were then harvested and protein extraction was performed, followed by IP pulldown of the YFP-Rev1 species with GFP-Trap A conjugated agarose beads, to assess the levels of Co-IP'ed myc-REV7.
Medium/DMEM (Biological Industries Israel Beit Haemek; 01-052-1A) with 4.5 g/l D-glucose, 4 mM L-glutamine, 10% fetal bovine serum (Biological Industries Israel Beit Haemek; 04-007-1A), and 1% penicillin/streptomycin. The H1975 cells were cultured in RPMI 1640 medium (Biological Industries Israel Beit Haemek; 01-100-1A) with 4.5 g/l D-glucose, 4 mM L-glutamine, 10% fetal bovine serum (Biological Industries Israel Beit Haemek; 04-007-1A), and 1% penicillin/streptomycin. Transfections of HEK293 cells with plasmid DNA were performed using the Avalanche® Everyday Transfection Reagent (EZT-EVDY-1); according to the manufacturer's protocol. Briefly, cells were passaged the day before transfection to reach a confluency of 60-70%. The next day, the selected plasmid DNA was incubated in serum-free media with the recommended volume of transfection reagent for 20 minutes at room temperature. This transfection mix was gently added to the prepared cell culture plate(s) for continued incubation at 37° C. For co-IP experiment plates, after 24 hours, the relevant compound (DMSO vehicle, c #2, or c #3) was added in pre-warmed media, and the transfected plates were incubated for another 24 hours at 37° C. until harvesting.
HEK293 cells were harvested 48 h following co-transfection and lysed in extraction buffer (50 mM Tris pH 8, 150 mM NaCl, 20 mM EDTA, 50 mM NaF, 1% TritonX) supplemented with Merck® 1000×protease inhibitor (539134). Cells were lysed on ice for 30 minutes and centrifuged at 20,000 g for 30 minutes at 4° C. For immunoblotting, extracts were boiled in Laemmli buffer for 5 min. Equal amounts of protein sample (30 μg) were loaded on 8%-12% acrylamide gel and transferred to a nitrocellulose membrane (Amersham). For immunoprecipitations, clarified lysates were supplemented with 7 μl of equilibrated GFP-Trap antibody-conjugated agarose beads (Chromotek; gta-20) and incubated for 1-2 h at 4° C. Beads were washed three times in PBS buffer and boiled in Laemmli buffer for 5 minutes. The following primary antibodies were used for immunoblotting: Myc (Santa Cruz; SC-40) 1:1000 dilution, GFP (Santa Cruz, SC-9996) 1:1000 dilution, MAD2L2 (ProteinTech; 12683-1-AP). […]

| Structure (SMILES) | cell survival with cisplatin plus inhibitor [1] | survival rate, combined treatment [2] [%] | toxicity / cell viability, compound alone [2] | toxicity / cell viability, compound alone ([2]; listed as c #2) | sensitization effect to cisplatin [2] | cell survival with cisplatin plus inhibitor [2] | Rev1-Rev7 binding interaction (in words) [3] | reduction of MAD2L2-Rev1 binding (complex formation) [3] | toxicity / cell viability, compound alone ([2]; listed as c #3) |
| --- | --- | --- | --- | --- | --- | --- | --- | --- | --- |
| CNc1nc(N2CCCCC2)nc(-n2cnc(SCC(N)=O)n2)n1 [Compound 2] | reduction in cell survival | 50 | no reduction in cell viability | caused no toxicity | approximately twofold sensitization effect | reduction in cell survival | reduction in Rev1-Rev7 binding interaction | about 50% | – |
| Cc1oc(-c2ccco2)nc1CC(=O)N[C@@H](C(=O)O)c1ccccc1 [Compound 3] | reduction in cell survival | 50 | no reduction in cell viability | – | approximately twofold sensitization effect | reduction in cell survival | reduction in Rev1-Rev7 binding interaction | about 80% | caused no toxicity |
